# Reference: paper PMC7527510, “Identification of the dog orthologue of human MAS-related G protein coupled receptor X2 (MRGPRX2) essential for drug-induced pseudo-allergic reactions” (Scientific Reports, 2020)
# Values joined by “and” are separate entries in the source; they are usually repeats but may differ in a detail not shown here. Identical values can stand only once. “Also recorded” adds a separate entry of the source. Like-named read-outs stand apart in the source and are kept apart here.
# Legend:
# [1] = test system: non-transfected HEK293 cells; assay: Intracellular Ca2+ levels in non-transfected HEK293 cells (negative control cells); assay type: cell-based, human; conditions: 1,000 μg/mL; data excluded from the analysis
# Description: HEK293 cells obtained from the JCRB Cell Bank (Osaka, Japan) were transfected transiently with dog MRGPRD, MRGPRF, MRGPRG, or MRGPRX2 or human MRGPRX2. Lipofectamine 2000 Reagent (Thermo Fisher Scientific Inc.) and pcDNA3.1(+) vector containing each gene were diluted and mixed using Opti-MEM I Reduced Serum Medium (Thermo Fisher Scientific Inc.) to prepare lipid-DNA complexes (final concentrations: lipofectamine 2.5 μL/mL and DNA 2,500 ng/mL). HEK293 cells were detached using TrypLE™ Express (Thermo Fisher Scientific Inc.) and prepared to 7 × 10^5 cells/mL with the lipid-DNA complex. […]
# Test articles were dissolved in HBSS (pH 7.4, Thermo Fisher Scientific Inc., Waltham, MA, USA) supplemented with 20 mM HEPES (Sigma-Aldrich Co. LLC.) and 0.05 vol% bovine serum albumin (BSA, Sigma-Aldrich Co. LLC.). […] Intracellular Ca^2+ levels were analysed using Calcium Kit II-iCellux (Dojindo Molecular Technologies, Inc., Kumamoto, Japan), according to the manufacturer's instructions. […] Changes in fluorescence intensities before and after addition of the test articles were measured over time using FLIPR Tetra (Molecular Devices, LLC., Sunnyvale, CA, USA) with excitation at 470–495 nm and emission at 515–575 nm. […] Samples were measured in duplicate or quadruplicate. […]
# [2] = molecular target: dog MRGPRX2 (Canis lupus familiaris, UniProt A0A4Y5P885); assay: Intracellular Ca2+ mobilisation assay in HEK293 cells transiently transfected with dog MRGPRX2; assay type: cell-based; conditions: for Difference in EC50 values between dog MRGPRX2 and human MRGPRX2: EC50 lower in dog MRGPRX2-expressing cells than in human MRGPRX2-expressing cells; for EC50: mean ± SD of three independent experiments; for Activation of dog MRGPRX2 (increase in intracellular Ca2+): HEK293 cells transfected with dog MRGPRX2, fluoroquinolones up to 1000 μg/mL
# dog MRGPRX2, sequence (A0A4Y5P885 entry or part of it): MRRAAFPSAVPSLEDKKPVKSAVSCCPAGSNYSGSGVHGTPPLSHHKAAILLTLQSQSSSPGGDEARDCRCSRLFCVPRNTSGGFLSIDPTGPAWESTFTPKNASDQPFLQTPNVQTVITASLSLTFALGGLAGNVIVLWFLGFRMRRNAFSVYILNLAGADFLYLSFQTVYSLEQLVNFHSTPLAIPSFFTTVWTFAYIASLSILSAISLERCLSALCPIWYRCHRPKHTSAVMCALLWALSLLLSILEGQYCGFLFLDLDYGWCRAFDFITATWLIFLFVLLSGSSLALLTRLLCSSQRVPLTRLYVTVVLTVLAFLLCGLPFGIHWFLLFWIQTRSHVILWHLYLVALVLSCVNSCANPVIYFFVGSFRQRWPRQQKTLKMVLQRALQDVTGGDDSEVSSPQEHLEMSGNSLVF
# Description: (§1) HEK293 cells obtained from the JCRB Cell Bank (Osaka, Japan) were transfected transiently with dog MRGPRD, MRGPRF, MRGPRG, or MRGPRX2 or human MRGPRX2. Lipofectamine 2000 Reagent (Thermo Fisher Scientific Inc.) and pcDNA3.1(+) vector containing each gene were diluted and mixed using Opti-MEM I Reduced Serum Medium (Thermo Fisher Scientific Inc.) to prepare lipid-DNA complexes (final concentrations: lipofectamine 2.5 μL/mL and DNA 2,500 ng/mL). HEK293 cells were detached using TrypLE™ Express (Thermo Fisher Scientific Inc.) and prepared to 7 × 10^5 cells/mL with the lipid-DNA complex. Thereafter, 25 μL cells (1.75 × 10^4 cells/well) were seeded per well in 384-well flat-bottomed plates (Corning Incorporated, Corning, NY, USA) and incubated overnight at 37 °C under 5% CO2 conditions. Cells treated with plasmid-free lipid solution were used as negative control (non-transfected cells).
# (§2) Test articles were dissolved in HBSS (pH 7.4, Thermo Fisher Scientific Inc., Waltham, MA, USA) supplemented with 20 mM HEPES (Sigma-Aldrich Co. LLC.) and 0.05 vol% bovine serum albumin (BSA, Sigma-Aldrich Co. LLC.). The highest concentration of the fluoroquinolones was set at 1000 μg/mL based on previous reports at which the test substances induced marked intracellular Ca^2+ mobilisation in human MRGPRX2-expressing HEK293 cells[11] or caused histamine release in rat or human mast cells[16],[25],[36]. Intracellular Ca^2+ levels were analysed using Calcium Kit II-iCellux (Dojindo Molecular Technologies, Inc., Kumamoto, Japan), according to the manufacturer's instructions. HEK293 cells (1.75 × 10^4 cells/well) were loaded with 1.25 mM probenecid and calcium probe for 45 min at 25 °C. Changes in fluorescence intensities before and after addition of the test articles were measured over time using FLIPR Tetra (Molecular Devices, LLC., Sunnyvale, CA, USA) with excitation at 470–495 nm and emission at 515–575 nm. The test articles were added at 10 s after beginning the measurements. Samples were measured in duplicate or quadruplicate. The data were analysed using ScreenWorks (Molecular Devices, LLC. Version 3.2.0.14) to determine the difference between maximal and minimal fluorescence intensity (max–min).
# (§3) Data represent the mean ± SD of three animals for distribution study or three independent assays for Ca^2+ mobilisation. EC50 of each test article used in the Ca^2+ mobilisation assay was calculated using the sigmoid Emax model. These analyses were performed by using the SAS System Release 8.2 software (SAS Institute Inc., Cary, NC, USA).
# [3] = molecular target: T1, human MRGPRX2 (Homo sapiens, UniProt Q96LB1); assay: Intracellular Ca2+ mobilisation assay in HEK293 cells transiently transfected with human MRGPRX2; assay type: cell-based; conditions: for Activation of human MRGPRX2 (increase in intracellular Ca2+): HEK293 cells transfected with human MRGPRX2, fluoroquinolones up to 1000 μg/mL; for EC50: human MRGPRX2-expressing HEK293 cells, mean ± SD of three independent experiments, read-out: EC50 on changes in intracellular Ca2+ levels, Human MRGPRX2 (converted)
# T1 construct: expressed in transfected cells; host or cells: HEK293 (JCRB Cell Bank), transient, pcDNA3.1(+) vector
# T1 sequence (Q96LB1 1-330): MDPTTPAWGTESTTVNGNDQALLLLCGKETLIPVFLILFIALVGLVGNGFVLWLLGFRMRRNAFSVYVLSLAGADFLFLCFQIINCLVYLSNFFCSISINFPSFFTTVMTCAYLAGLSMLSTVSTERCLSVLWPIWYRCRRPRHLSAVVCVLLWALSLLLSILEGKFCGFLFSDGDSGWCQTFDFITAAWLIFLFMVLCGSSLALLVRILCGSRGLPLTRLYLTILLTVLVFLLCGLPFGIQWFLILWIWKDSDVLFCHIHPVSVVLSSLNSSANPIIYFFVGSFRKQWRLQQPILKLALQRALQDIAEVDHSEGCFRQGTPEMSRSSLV
# Description: as §1
# as §2, with “The highest concentration of the fluoroquinolones was set at 1000 μg/mL based on previous reports at which the test substances induced marked intracellular Ca^2+ mobilisation in human MRGPRX2-expressing HEK293 cells[11] or caused histamine release in rat or human mast cells[16],[25],[36].” left out
# as §3
# [4] = test system: dispersed canine skin mast cells; parameters: method as in PMID 10864147; conditions: cited from earlier work
# [5] = parameters: method as in PMID 9635500; conditions: cited from earlier work
# [6] = test system: mouse Mrgprb2; parameters: method as in PMID 25517090; conditions: cited from earlier work
# [7] = EC50 on changes in intracellular Ca2+ levels, Dog MRGPRX2, dog MRGPRX2-expressing HEK293 cells
Compound,Nonspecific increase in intracellular Ca2+ levels in non-transfected cells [1],Difference in EC50 values between dog MRGPRX2 and human MRGPRX2 [2],"EC50 [2, 7]",Activation of dog MRGPRX2 (increase in intracellular Ca2+) [2],Activation of human MRGPRX2 (increase in intracellular Ca2+) [3],"EC50 ([2]; dog MRGPRX2-expressing HEK293 cells, read-out: EC50 on changes in intracellular Ca2+ levels, Dog MRGPRX2 (converted)) [µM]",EC50 [3] [µM],Concentration inducing histamine release from dispersed canine skin mast cells [4] [µg/mL],Histamine release in dogs [5],EC50 in mouse Mrgprb2-expressing cells compared to human MRGPRX2-expressing cells ([6]; higher in mouse) [fold],EC50 ([6]; read-out: EC50 in mouse Mrgprb2-expressing cells) [µM]
"O=C(O)c1cn(C2CC2)c2cc(N3CCNCC3)c(F)cc2c1=O [CPFX, ciprofloxacin]",induced nonspecific increase,ca. sevenfold,~45.3 µM and 43.8 µM,responded,concentration-dependent,–,–,–,–,–,–
"COc1c(N2CCNC(C)C2)c(F)cc2c(=O)c(C(=O)O)cn(C3CC3)c12 (centres unmarked) [GFLX, gatifloxacin]",–,–,–,responded,concentration-dependent,210,529,–,–,–,–
"C[C@H]1COc2c(N3CCN(C)CC3)c(F)cc3c(=O)c(C(=O)O)cn1c23 [LVFX, levofloxacin]",–,ca. sevenfold,~166 µM and 163 µM,responded,concentration-dependent,–,1060,≥ 30,–,–,–
"C[C@H]1COc2c(C3(N)CC3)c(F)cc3c(=O)c(C(=O)O)cn1c23 [PZFX, pazufloxacin]",–,–,–,did not activate,did not activate,–,–,–,does not induce histamine release; also recorded: does not cause histamine release,–,–
substance P,–,–,–,–,–,–,–,–,–,360,54
